Assay results as given in US20190000976A1, “Purgative Composition” (CTC BIO, INC., priority 2016, published 2019).

Tests used:
[1] = Stability of sodium picosulfate in solution alone, with polyethylene glycol 4000 or with sorbitol (content by HPLC, British Pharmacopoeia); type: physicochemical
Experimental: The solution was stored at room temperature, in accelerated condition (40° C., 75%RH), and stress condition (60° C., 75%RH).

[2] = Stability of sodium picosulfate in polyethylene glycol 3350 / sorbitol solution with sodium hydrogencarbonate or sodium citrate, 3 weeks (content by HPLC); type: physicochemical; settings: by comprising sodium hydrogencarbonate or sodium citrate
Experimental: The solution was stored at room temperature or stress condition (60° C., 75%RH) for 3 weeks. The content of sodium picosulfate was evaluated. The content of sodium picosulfate was determined by ‘Sodium picosulfate powder for oral solution’ test method of British Pharmacopoeia using high performance liquid chromatography.

## O=S(=O)(O)Oc1ccc(C(c2ccc(OS(=O)(=O)O)cc2)c2ccccn2)cc1 [sodium picosulfate]
[1]; 1 week, accelerated condition (40° C., 75%RH)
  Content (%) of sodium picosulfate, After 1 week Accelerated condition: 102.2%
[1]; 1 week, room temperature
  Content (%) of sodium picosulfate, After 1 week Room temp.: 102.2%
[1]; 1 week, stress condition (60° C., 75%RH)
  Content (%) of sodium picosulfate, After 1 week Stress condition: 102.4%
[1]; 2 weeks, room temperature
  Content (%) of sodium picosulfate, After 2 weeks Room temp.: 102.4%
[1]; 2 weeks, stress condition (60° C., 75%RH)
  Content (%) of sodium picosulfate, After 2 weeks Stress condition: 102.5%
[1]; Initial, 300 ml solution
  Content (%) of sodium picosulfate, Initial: 102.4%
[1]; when mixed with polyethylene glycol
  Stability of sodium picosulfate (in words): very unstable
[2]
  Instability of sodium picosulfate caused by mixing with polyethylene glycol (in words): improved dramatically
